In patent US20190327974A1, “SYNERGISTS FOR IMPROVED PESTICIDES” (priority 2017, published 2019):

Legend:
GranzymeA = biological target: T1, GranzymeA (Homo sapiens, UniProt P12544); assay: Protease selectivity panel; assay type: biochemical; conditions: 100 μM compound, n = 2
T1 construct: purchased ENZO
T1 sequence (P12544 29-262): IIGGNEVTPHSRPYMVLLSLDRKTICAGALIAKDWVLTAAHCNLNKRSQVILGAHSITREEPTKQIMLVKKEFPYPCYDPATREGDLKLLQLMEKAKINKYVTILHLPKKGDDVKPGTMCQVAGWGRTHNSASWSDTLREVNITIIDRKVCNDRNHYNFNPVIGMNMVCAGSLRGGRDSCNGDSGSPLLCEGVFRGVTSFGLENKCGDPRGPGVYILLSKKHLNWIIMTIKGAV
Experimental: (§1) Test compounds were dissolved in 100% DMSO to make 10 mM stock. Final compound concentration in assay is […]. Compounds were tested in duplicate wells at single concentration and the final concentration of DMSO in all assays was kept at 1%. Five reference compounds, AEBSF, Carfilzomib, Granzyme B Inhibitor II, Dec-RVKR-CMK, and Teneligliptin hydrobromide, were tested in an identical manner with 8 concentration points at 5× dilutions.

Plasma-Kallikrein = biological target: T2, Plasma-Kallikrein (Homo sapiens, UniProt P03952); assay: Protease selectivity panel; assay type: biochemical; conditions: 100 μM compound, n = 2
T2 construct: purchased R&D Systems
T2 sequence (P03952 20-638): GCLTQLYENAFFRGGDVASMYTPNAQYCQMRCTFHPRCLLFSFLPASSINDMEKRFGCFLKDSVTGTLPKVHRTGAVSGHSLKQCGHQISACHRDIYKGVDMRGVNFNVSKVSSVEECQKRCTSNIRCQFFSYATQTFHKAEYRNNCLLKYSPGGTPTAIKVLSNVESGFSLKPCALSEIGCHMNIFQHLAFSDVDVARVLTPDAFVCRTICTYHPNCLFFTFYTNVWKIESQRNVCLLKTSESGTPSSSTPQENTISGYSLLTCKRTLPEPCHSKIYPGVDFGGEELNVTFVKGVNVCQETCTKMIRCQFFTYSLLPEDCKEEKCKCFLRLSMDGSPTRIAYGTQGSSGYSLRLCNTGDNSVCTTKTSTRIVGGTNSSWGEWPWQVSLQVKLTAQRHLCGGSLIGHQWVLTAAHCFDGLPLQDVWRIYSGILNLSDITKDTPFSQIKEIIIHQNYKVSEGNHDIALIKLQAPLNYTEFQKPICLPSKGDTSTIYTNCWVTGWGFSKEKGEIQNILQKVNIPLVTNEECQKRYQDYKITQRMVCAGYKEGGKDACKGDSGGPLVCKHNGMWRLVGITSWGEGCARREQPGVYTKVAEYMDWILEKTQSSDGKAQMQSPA
Experimental: as §1

HTRA2 = biological target: T3, HTRA2 (Homo sapiens, UniProt O43464); assay: Protease selectivity panel; assay type: biochemical; conditions: 100 μM compound, n = 2
T3 construct: purchased R&D Systems
T3 sequence (O43464 134-458): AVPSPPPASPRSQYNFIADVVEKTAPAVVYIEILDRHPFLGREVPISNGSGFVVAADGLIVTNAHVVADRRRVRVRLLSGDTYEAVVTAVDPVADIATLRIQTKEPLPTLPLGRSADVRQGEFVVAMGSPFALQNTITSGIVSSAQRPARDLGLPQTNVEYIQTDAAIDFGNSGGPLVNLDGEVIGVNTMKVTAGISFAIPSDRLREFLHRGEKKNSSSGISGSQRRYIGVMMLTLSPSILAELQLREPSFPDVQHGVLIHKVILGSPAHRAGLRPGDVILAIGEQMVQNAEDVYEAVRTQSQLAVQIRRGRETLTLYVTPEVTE
Experimental: as §1

Kallikrein13 = biological target: T4, Kallikrein13 (Homo sapiens, UniProt Q9UKR3); assay: Protease selectivity panel; assay type: biochemical; conditions: 100 μM compound, n = 2
T4 construct: purchased R&D Systems
T4 sequence (Q9UKR3 26-277 limits assumed): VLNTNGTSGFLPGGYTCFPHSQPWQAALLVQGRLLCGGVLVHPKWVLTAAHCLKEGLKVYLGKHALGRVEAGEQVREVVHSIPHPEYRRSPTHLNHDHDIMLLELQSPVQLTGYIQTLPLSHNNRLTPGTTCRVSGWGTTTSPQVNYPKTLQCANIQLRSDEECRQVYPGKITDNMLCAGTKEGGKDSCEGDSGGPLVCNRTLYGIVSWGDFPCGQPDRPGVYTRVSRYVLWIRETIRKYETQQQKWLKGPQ
Experimental: as §1

Factor VII = biological target: T5, Factor VII (Homo sapiens, UniProt P08709); assay: Protease selectivity panel; assay type: biochemical; conditions: 100 μM compound, n = 2
T5 construct: purchased R&D Systems
T5 sequence (P08709 213-466 limits assumed): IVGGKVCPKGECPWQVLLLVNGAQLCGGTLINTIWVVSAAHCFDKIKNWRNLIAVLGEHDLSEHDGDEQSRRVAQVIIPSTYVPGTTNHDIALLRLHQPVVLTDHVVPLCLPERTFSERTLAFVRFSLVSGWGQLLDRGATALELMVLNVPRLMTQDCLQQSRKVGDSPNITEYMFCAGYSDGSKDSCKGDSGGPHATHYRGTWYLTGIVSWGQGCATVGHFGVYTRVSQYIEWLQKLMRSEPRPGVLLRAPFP
T5 sequence (P08709 61-212 partner limits assumed): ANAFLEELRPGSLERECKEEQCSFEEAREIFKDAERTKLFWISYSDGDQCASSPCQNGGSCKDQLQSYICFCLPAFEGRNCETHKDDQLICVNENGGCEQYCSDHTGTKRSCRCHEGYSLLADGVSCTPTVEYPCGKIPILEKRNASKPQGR
T5 sequence (P13726 33-251 partner limits assumed): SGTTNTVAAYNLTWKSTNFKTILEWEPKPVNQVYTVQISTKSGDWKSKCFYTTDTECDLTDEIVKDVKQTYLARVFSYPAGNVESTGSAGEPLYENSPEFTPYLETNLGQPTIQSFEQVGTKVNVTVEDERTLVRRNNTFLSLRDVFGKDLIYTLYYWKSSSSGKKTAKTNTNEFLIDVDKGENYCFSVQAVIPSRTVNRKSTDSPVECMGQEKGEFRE
Experimental: as §1

Thrombin = biological target: T6, Thrombin (Homo sapiens, UniProt P00734); assay: Protease selectivity panel; assay type: biochemical; conditions: 100 μM compound, n = 2
T6 construct: Thrombin; purchased R&D Systems
Experimental: as §1

DPP9 = biological target: T7, DPP9 (Homo sapiens, UniProt Q86TI2); assay: Protease selectivity panel; assay type: biochemical; conditions: 100 μM compound, n = 2
T7 construct: purchased ENZO
T7 sequence (Q86TI2 whole entry): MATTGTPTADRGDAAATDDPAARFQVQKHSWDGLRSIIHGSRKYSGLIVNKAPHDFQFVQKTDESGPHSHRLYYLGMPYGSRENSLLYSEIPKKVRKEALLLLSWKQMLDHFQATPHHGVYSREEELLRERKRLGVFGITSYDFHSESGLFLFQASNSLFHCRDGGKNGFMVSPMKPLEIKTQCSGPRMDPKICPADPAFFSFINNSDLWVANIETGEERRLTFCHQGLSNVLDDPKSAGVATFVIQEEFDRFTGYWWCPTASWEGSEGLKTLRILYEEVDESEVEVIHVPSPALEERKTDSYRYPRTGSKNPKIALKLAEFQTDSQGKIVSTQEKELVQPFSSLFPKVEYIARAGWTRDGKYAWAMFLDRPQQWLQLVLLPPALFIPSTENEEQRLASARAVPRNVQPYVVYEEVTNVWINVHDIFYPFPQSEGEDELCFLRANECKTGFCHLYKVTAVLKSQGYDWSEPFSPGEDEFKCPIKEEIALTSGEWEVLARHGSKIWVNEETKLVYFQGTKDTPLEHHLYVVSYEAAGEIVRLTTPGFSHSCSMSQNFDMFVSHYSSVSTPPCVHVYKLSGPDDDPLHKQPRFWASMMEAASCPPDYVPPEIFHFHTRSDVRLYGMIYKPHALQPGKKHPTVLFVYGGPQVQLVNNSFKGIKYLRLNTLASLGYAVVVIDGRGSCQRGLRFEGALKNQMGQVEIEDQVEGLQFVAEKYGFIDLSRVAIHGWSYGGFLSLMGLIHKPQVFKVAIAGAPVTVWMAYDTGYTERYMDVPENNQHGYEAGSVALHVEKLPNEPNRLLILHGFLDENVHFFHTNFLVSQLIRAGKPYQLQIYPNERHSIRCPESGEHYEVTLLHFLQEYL
Experimental: as §1

DPP4 = biological target: T8, DPP4 (Homo sapiens, UniProt P27487); assay: Protease selectivity panel; assay type: biochemical; conditions: 100 μM compound, n = 2
T8 construct: purchased ENZO
T8 sequence (P27487 whole entry): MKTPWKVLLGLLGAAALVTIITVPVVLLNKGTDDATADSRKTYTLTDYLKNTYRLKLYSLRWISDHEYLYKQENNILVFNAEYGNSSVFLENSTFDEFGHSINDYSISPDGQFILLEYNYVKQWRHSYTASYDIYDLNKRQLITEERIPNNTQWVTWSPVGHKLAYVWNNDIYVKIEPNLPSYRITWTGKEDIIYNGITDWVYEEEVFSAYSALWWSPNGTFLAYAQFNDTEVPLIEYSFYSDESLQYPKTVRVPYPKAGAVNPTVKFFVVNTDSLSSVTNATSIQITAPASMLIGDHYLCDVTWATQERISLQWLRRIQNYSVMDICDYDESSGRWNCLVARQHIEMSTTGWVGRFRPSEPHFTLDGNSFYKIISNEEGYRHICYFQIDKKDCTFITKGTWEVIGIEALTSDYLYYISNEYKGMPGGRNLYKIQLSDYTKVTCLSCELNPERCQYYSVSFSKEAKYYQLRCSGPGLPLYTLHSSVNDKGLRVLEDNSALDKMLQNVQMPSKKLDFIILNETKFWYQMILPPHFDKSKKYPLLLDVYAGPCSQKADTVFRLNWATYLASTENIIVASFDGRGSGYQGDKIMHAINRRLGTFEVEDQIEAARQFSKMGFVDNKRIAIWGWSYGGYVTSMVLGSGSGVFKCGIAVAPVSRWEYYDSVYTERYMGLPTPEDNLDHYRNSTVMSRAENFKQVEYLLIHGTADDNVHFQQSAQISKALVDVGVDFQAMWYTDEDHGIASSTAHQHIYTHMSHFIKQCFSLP
Experimental: as §1

uPA = biological target: T9, uPA (Homo sapiens, UniProt P00749); assay: Protease selectivity panel; assay type: biochemical; conditions: 100 μM compound, n = 2
T9 construct: purchased R&D Systems
Experimental: as §1

Furin = biological target: T10, Furin (Homo sapiens, UniProt P09958); assay: Protease selectivity panel; assay type: biochemical; conditions: 100 μM compound, n = 2
T10 construct: purchased R&D Systems
T10 sequence (P09958 108-794): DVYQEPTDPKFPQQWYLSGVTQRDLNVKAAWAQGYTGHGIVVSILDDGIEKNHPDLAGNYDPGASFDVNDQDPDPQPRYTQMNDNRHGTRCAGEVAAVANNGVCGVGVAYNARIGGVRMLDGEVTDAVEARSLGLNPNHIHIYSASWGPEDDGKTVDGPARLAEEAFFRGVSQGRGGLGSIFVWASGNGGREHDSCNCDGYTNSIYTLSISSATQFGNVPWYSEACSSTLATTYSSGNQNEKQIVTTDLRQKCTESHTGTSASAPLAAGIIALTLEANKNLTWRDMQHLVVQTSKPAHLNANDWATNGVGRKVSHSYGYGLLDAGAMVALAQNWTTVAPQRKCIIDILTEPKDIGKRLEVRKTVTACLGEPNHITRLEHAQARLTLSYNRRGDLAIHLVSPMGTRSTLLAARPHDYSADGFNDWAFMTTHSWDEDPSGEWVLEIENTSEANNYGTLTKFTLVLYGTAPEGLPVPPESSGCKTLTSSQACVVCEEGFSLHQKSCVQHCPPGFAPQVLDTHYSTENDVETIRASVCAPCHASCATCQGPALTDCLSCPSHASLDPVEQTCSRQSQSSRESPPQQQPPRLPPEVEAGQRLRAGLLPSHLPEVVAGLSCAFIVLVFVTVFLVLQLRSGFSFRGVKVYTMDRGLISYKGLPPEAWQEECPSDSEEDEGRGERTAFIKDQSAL
Experimental: as §1

Matriptase = biological target: T11, Matriptase (Homo sapiens, UniProt Q9Y5Y6); assay: Protease selectivity panel; assay type: biochemical; conditions: 100 μM compound, n = 2
T11 construct: purchased R&D Systems
T11 sequence (Q9Y5Y6 1-855): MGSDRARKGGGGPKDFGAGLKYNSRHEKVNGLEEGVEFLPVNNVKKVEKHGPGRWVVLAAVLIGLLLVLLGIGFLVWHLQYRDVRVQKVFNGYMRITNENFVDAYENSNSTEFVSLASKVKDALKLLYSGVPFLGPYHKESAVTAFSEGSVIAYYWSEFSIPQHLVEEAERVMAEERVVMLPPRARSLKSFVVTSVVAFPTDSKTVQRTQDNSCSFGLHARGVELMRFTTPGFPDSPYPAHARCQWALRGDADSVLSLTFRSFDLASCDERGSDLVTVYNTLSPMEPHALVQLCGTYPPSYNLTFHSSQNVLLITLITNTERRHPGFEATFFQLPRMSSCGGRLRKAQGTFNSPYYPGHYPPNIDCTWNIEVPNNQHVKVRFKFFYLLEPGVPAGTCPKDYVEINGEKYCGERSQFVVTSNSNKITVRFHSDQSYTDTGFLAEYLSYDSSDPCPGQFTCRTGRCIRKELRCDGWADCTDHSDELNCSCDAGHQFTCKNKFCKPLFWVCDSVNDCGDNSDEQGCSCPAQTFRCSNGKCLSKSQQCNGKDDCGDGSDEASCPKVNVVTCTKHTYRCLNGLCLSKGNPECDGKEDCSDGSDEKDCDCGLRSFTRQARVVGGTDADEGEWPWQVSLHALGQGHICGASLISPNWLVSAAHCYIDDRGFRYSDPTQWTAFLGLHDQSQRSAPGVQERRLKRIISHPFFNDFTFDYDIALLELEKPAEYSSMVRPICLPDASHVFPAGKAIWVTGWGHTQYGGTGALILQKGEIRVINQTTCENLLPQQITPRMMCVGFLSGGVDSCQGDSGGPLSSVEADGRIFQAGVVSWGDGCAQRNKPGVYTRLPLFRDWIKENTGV
Experimental: as §1

[1] = system: HB-2 and MDA-MB-231 human cell lines; assay: Cell toxicity, two human cell lines HB-2 and MDA-MB-231; assay type: cell-based; conditions: 48 h, up to 100 μM
Experimental: FIG. 13 depicts that boronic acids show little cell toxicity. Compounds 1-5 as well as 3.9 and 3.10 were incubated for 48 h with two different human cell lines HB-2 and MDA-MB-231 at 7 concentrations up to 100 μM. Cell viability was measured after 48 h using Cell Titer Glo assay.
A seven-point, two-fold dose response series, with a 100 uM as the upper limit and a DMSO-only control point was generated using an Echo 550 liquid handler (Labcyte Inc.) in 384-well plates. Subsequently, the human breast cell lines MDA-MB-231 (tumorigenic) and HB2 (non-tumorigenic) were seeded (1000 cells/well) using a multi-drop Combi (Thermo Fisher Scientific) on top of the compounds. Plates were then incubated at 37° C. and 5% CO2 for 48 hours upon which cell viability was assessed by adding CellTiter-Glo® (Promega) to the reaction. The luminescence signal was measured on a Pherastar FS multi-mode plate reader (BMG Labtech).

Question: `OB(O)c1cc(Br)cc(OCc2ccccc2)c1` [Compound 3.9] was tested. Which inhibition at 100 µM (GranzymeA) did it give?
Answer: 23%

Question: What about the inhibition at 100 µM (Plasma-Kallikrein) of the same compound?
Answer: 41%

Question: What about the inhibition at 100 µM (HTRA2) of the same compound?
Answer: 28%

Question: And the inhibition at 100 µM (Kallikrein13)?
Answer: -1%

Question: And the inhibition at 100 µM (Factor VII)?
Answer: 26%

Question: And the inhibition at 100 µM (Thrombin)?
Answer: 54%

Question: What about the inhibition at 100 µM (DPP9) of the same compound?
Answer: 75%

Question: And the inhibition at 100 µM (DPP4)?
Answer: 2%

Question: And the inhibition at 100 µM (uPA)?
Answer: 40%

Question: What about the inhibition at 100 µM (Furin) of the same compound?
Answer: -2%

Question: And the inhibition at 100 µM (Matriptase)?
Answer: 5%

Question: And the “cellular toxicity” value [1]?
Answer: do not exhibit any cellular toxicity up to 100 μM

Question: With `Cc1ccc(B(O)O)cc1OCc1ccccc1` [Compound 2] as the compound, how does the “cellular toxicity” value [1] read?
Answer: low toxicity against HB-2

Question: `OB(O)c1cc(Br)cc(N2CCCC2)c1` [Compound 3] was tested. Which inhibition at 100 µM (GranzymeA) did it give?
Answer: 12%

Question: What about the inhibition at 100 µM (Plasma-Kallikrein) of the same compound?
Answer: 6%

Question: And the inhibition at 100 µM (HTRA2)?
Answer: 23%

Question: What about the inhibition at 100 µM (Kallikrein13) of the same compound?
Answer: 3%

Question: What about the inhibition at 100 µM (Factor VII) of the same compound?
Answer: 15%

Question: And the inhibition at 100 µM (Thrombin)?
Answer: 32%

Question: What about the inhibition at 100 µM (DPP9) of the same compound?
Answer: 45%

Question: And the inhibition at 100 µM (DPP4)?
Answer: 6%

Question: And the inhibition at 100 µM (uPA)?
Answer: 67%

Question: What about the inhibition at 100 µM (Furin) of the same compound?
Answer: 1%

Question: What about the inhibition at 100 µM (Matriptase) of the same compound?
Answer: -1%

Question: For `OB(O)c1cc(Br)cc(Oc2ccccc2)c1` [Compound 3.10, 3-Bromo-5-phenoxyfenylboronic acid], which inhibition at 100 µM (GranzymeA) is on record?
Answer: 12%

Question: And the inhibition at 100 µM (Plasma-Kallikrein)?
Answer: 64%

Question: What about the inhibition at 100 µM (HTRA2) of the same compound?
Answer: 2%

Question: What about the inhibition at 100 µM (Kallikrein13) of the same compound?
Answer: 0%

Question: What about the inhibition at 100 µM (Factor VII) of the same compound?
Answer: 53%

Question: What about the inhibition at 100 µM (Thrombin) of the same compound?
Answer: 58%

Question: And the inhibition at 100 µM (DPP9)?
Answer: 71%

Question: And the inhibition at 100 µM (DPP4)?
Answer: -3%

Question: What about the inhibition at 100 µM (uPA) of the same compound?
Answer: 32%

Question: What about the inhibition at 100 µM (Furin) of the same compound?
Answer: -5%

Question: What about the inhibition at 100 µM (Matriptase) of the same compound?
Answer: 4%

Question: What about the “cellular toxicity” value [1] of the same compound?
Answer: do not exhibit any cellular toxicity up to 100 μM

Question: For `OB(O)c1ccc(OCc2ccccc2F)c(Cl)c1` [Compound 5, 3-Chloro-4(2′-fluorobenzyloxy) phenylboronic acid], which “cellular toxicity” value [1] is on record?
Answer: low toxicity against HB-2
